Assay results: ChEMBL document CHEMBL3880435, “Compounds and compositions as protein kinase inhibitors” (2013)
pIC50: −log10 of the molar value. Blank lines part the entries; values can stand above or below the compound they belong to.

Legend:
[1] = molecular target: Serine/threonine-protein kinase B-raf (Homo sapiens, UniProt P15056, V600E); test: Inhibition of B-Raf V600E mutant (unknown origin) using biotinylated Mek substrate incubated for 60 mins by amplified luminescence proximity homogeneous assay
[2] = Antitumor activity against human A375 cells xenografted in Nu/Nu mouse assessed as tumor volume level at 1 mg/kg, dosed BID for 14 days commencing on day 19 measured after 14 days post-first dose relative to initial tumor volume; assay type: functional, A-375
[3] = Antitumor activity against human A375 cells xenografted in Nu/Nu mouse assessed as tumor volume level at 3 mg/kg, dosed BID for 14 days commencing on day 19 measured after 14 days post-first dose relative to initial tumor volume; assay type: functional, A-375
[4] = Antitumor activity against human A375 cells xenografted in Nu/Nu mouse assessed as tumor volume level at 10 mg/kg, dosed BID for 14 days commencing on day 19 measured after 14 days post-first dose relative to initial tumor volume; assay type: functional, A-375
[5] = Antitumor activity against human A375 cells xenografted in Nu/Nu mouse assessed as tumor volume level at 20 mg/kg, dosed BID for 14 days commencing on day 19 measured after 14 days post-first dose relative to initial tumor volume; assay type: functional, A-375
[6] = Hepatic extraction ratio in human liver microsomes at 1 uM in presence of NADPH by LC-MS/MS method; assay type: ADME; conditions: read-out: ERH

Sequence of Serine/threonine-protein kinase B-raf (P15056 2-766 V600E limits assumed): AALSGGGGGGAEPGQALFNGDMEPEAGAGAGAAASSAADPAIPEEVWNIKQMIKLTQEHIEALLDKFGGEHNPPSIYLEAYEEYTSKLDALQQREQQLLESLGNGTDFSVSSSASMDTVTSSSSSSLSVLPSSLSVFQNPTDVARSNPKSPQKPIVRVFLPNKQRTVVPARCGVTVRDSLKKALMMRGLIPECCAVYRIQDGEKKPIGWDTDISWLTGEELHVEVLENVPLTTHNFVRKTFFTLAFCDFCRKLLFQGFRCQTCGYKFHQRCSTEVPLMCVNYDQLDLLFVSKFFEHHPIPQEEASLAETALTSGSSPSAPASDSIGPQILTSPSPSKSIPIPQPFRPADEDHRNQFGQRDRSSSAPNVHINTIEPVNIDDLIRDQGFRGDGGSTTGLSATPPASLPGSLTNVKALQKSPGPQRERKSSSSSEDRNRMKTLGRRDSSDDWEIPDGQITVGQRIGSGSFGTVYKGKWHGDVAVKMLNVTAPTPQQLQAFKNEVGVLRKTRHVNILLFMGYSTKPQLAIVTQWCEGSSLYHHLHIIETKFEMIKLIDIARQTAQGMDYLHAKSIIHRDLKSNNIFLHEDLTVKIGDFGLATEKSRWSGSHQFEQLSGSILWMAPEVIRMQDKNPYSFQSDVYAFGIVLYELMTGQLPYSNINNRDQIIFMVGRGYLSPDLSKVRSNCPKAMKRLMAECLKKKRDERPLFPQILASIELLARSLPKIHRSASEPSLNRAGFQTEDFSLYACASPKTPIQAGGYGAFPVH

pIC50 [1]: 9.00
Structure (SMILES): COC(=O)N[C@@H](C)CNc1nccc(-c2cn(C(C)C)nc2-c2cc(C)cc(NS(C)(=O)=O)c2Cl)n1

Structure (SMILES): COC(=O)N[C@@H](C)CNc1nccc(-c2cn(C(C)C)nc2-c2cc(Cl)cc(NS(C)(=O)=O)c2F)n1 [ENCORAFENIB]
Activity [2]: 20 - 50% | Activity [3]: 20% | Activity [4]: <80% | Activity [5]: <80%

hepatic extraction ratio at 1 µM [6]: < 0.31
Structure (SMILES): COC(=O)N[C@@H](C)CNc1nccc(-c2cn(C(C)C)nc2-c2cccc(NS(C)(=O)=O)c2F)n1

pIC50 [1]: 9.02
Structure (SMILES): COC(=O)N[C@@H](C)CNc1nccc(-c2cn(C(C)C)nc2-c2cc(C)cc(NS(C)(=O)=O)c2F)n1
